According to the supplement of paper PMC10307832:

Key:
Assay in all cases: relative viability (nuclei count vs DMSO), 5 days (fraction); higher = more cells survive
Erlotinib + Olaparib = compound: C#Cc1cccc(Nc2ncnc3cc(OCCOC)c(OCCOC)cc23)c1 [Erlotinib] + O=C(c1cc(Cc2n[nH]c(=O)c3ccccc23)ccc1F)N1CCN(C(=O)C2CC2)CC1 [Olaparib] (partner 8 µM)
Summary of the method: (§1)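 A single step with final 0.05% Triton X-100, 1% formaldehyde and 1 ug/ml Hoechst fixed the cells and stained nuclei 5 days after treatment. Lung cancer cell lines in 1536-well plates had been treated by pin tool the day after seeding with one drug alone or a fixed anchor-drug dose plus five library-drug doses (not always all listed) in √10 steps, and nuclei were counted on 4× images. Relative viability is the ratio of nuclei in treated wells to nuclei in vehicle wells, taken as the median of duplicate plates.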

AT9283 + Alpelisib = compound: O=C(Nc1c[nH]nc1-c1nc2ccc(CN3CCOCC3)cc2[nH]1)NC1CC1 [AT9283] + Cc1nc(NC(=O)N2CCC[C@H]2C(N)=O)sc1-c1ccnc(C(C)(C)C(F)(F)F)c1 [Alpelisib] (partner 2 µM)
Summary of the method: as §1

AT9283 + Crizotinib = compound: O=C(Nc1c[nH]nc1-c1nc2ccc(CN3CCOCC3)cc2[nH]1)NC1CC1 [AT9283] + C[C@@H](Oc1cc(-c2cnn(C3CCNCC3)c2)cnc1N)c1c(Cl)ccc(F)c1Cl [Crizotinib] (partner 1 µM)
Summary of the method: as §1

AT9283 + Linsitinib = compound: O=C(Nc1c[nH]nc1-c1nc2ccc(CN3CCOCC3)cc2[nH]1)NC1CC1 [AT9283] + C[C@]1(O)C[C@@H](c2nc(-c3ccc4ccc(-c5ccccc5)nc4c3)c3c(N)nccn32)C1 [Linsitinib] (partner 1 µM)
Summary of the method: as §1

AT9283 + Vorinostat = compound: O=C(Nc1c[nH]nc1-c1nc2ccc(CN3CCOCC3)cc2[nH]1)NC1CC1 [AT9283] + O=C(CCCCCCC(=O)Nc1ccccc1)NO [Vorinostat] (partner 1 µM)
Summary of the method: as §1

Cell Line | relative viability (Erlotinib + Olaparib; first compound 0.02 µM) | relative viability (Erlotinib + Olaparib; first compound 0.2 µM) | relative viability (Erlotinib + Olaparib; first compound 0.6325 µM) | relative viability (Erlotinib + Olaparib; first compound 2 µM) | relative viability (AT9283 + Alpelisib; first compound 0.003 µM) | relative viability (AT9283 + Alpelisib; first compound 0.03 µM) | relative viability (AT9283 + Alpelisib; first compound 0.09487 µM) | relative viability (AT9283 + Alpelisib; first compound 0.3 µM) | relative viability (AT9283 + Crizotinib; first compound 0.003 µM) | relative viability (AT9283 + Crizotinib; first compound 0.03 µM) | relative viability (AT9283 + Crizotinib; first compound 0.09487 µM) | relative viability (AT9283 + Crizotinib; first compound 0.3 µM) | relative viability (AT9283 + Linsitinib; first compound 0.003 µM) | relative viability (AT9283 + Linsitinib; first compound 0.03 µM) | relative viability (AT9283 + Linsitinib; first compound 0.09487 µM) | relative viability (AT9283 + Linsitinib; first compound 0.3 µM) | relative viability (AT9283 + Vorinostat; first compound 0.003 µM) | relative viability (AT9283 + Vorinostat; first compound 0.03 µM) | relative viability (AT9283 + Vorinostat; first compound 0.09487 µM) | relative viability (AT9283 + Vorinostat; first compound 0.3 µM)
Calu-6 | 0.602 | 0.546 | 0.552 | 0.519 | 0.986 | 0.23 | 0.26 | 0.246 | 0.742 | 0.253 | 0.238 | 0.291 | 0.859 | 0.286 | 0.222 | 0.197 | – | – | – | –
ChaGo-K-1 | 0.426 | 0.466 | 0.391 | 0.402 | – | – | – | – | 0.973 | 0.416 | 0.343 | 0.387 | – | – | – | – | 0.662 | 0.447 | 0.325 | 0.216
EBC-1 | 0.724 | 0.75 | 0.675 | – | 0.961 | 0.291 | 0.176 | 0.177 | 0.212 | 0.178 | 0.172 | 0.181 | 0.997 | 0.354 | 0.214 | 0.111 | – | – | – | –
EKVX | 0.839 | 0.476 | 0.385 | 0.183 | 0.934 | 0.726 | 0.356 | 0.218 | 0.878 | 0.663 | 0.371 | 0.216 | 0.966 | 0.79 | 0.434 | 0.204 | 0.673 | 0.545 | 0.302 | 0.287
EMC-BAC-2 | 0.569 | 0.547 | 0.492 | 0.46 | 0.775 | 0.499 | 0.173 | 0.157 | 0.67 | 0.36 | 0.163 | 0.151 | 0.85 | 0.634 | 0.205 | 0.226 | 0.28 | 0.19 | 0.159 | 0.146
EPLC-272H | 0.704 | 0.711 | 1.01 | 0.575 | 0.872 | 0.831 | 0.954 | 0.2 | 0.951 | 0.856 | 0.431 | 0.14 | 1.26 | 1.25 | 0.973 | 0.183 | 0.467 | 0.167 | 0.206 | 0.139
H3255 | 0.661 | 0.469 | 0.387 | 0.242 | 0.652 | 0.68 | 0.443 | 0.178 | 0.909 | 0.77 | 0.471 | 0.146 | 0.877 | 0.91 | 0.298 | 0.132 | 0.818 | 0.907 | 0.733 | 0.298
HARA | 1.1 | 0.591 | 1.02 | 0.354 | 0.643 | 0.844 | 0.0814 | 0.0973 | 1.1 | 0.4 | 0.105 | 0.13 | 0.428 | 0.879 | 0.0968 | 0.0955 | 0.365 | 0.453 | 0.122 | 0.0962
HCC-15 | 0.701 | 0.753 | 0.715 | 0.626 | 0.874 | 0.598 | 0.134 | 0.135 | 0.765 | 0.478 | 0.139 | 0.129 | 0.831 | 0.424 | 0.155 | 0.146 | 0.873 | 0.426 | 0.165 | 0.166
